In patent US11332483B2, “Naphthoquinone containing gold carbene complexes and methods of uses thereof” (BOARD OF REGENTS, THE UNIVERSITY OF TEXAS SYSTEM, priority 2017, dated 2022):

Columns and labels:
[1] = test system: A2780 ovarian (wt-p53, platinum sensitive); experiment: Cell proliferation (MTT) assay in A2780 ovarian cells; format: cell-based; settings: Table 3; error is standard error of the mean
Description: (§1) Further anti-proliferation studies were carried out with complex 1 and its naphthoquinone component 4[H][Cl] using the following cell lines: A2780 ovarian (a wt-p53 cell line sensitive to platinum treatment), 2780CP ovarian (isogenic to A2780 but expressing multi-drug resistance (MDR)), and PC-3 prostate (p53 null) (Table 3).
(§2) Cells were harvested and seeded into 96-well culture plates (Costar 07-200-90) in 100 μL of culture media. They were allowed to incubate overnight at 37° C. in the presence of 5% CO2. A549 was seeded at a density of 1000 cells/well, A2780 at 2500 cells/well, A2780CP at 3000 cells/well, and PC-3 at 2000 cells/well. The next day, appropriate serial dilutions of drug stocks in culture media were made. To each well of a 96 well plate was added 100 μL of the appropriate solution. After a total of three days, a […] aliquot of 3 mg/mL tetrazolium dye, 344,5-dimethylthiazol-2-yl)-2,5-diphenyltetrazolium bromide (Alfa Aesar L11939) was added to each well, followed by a 4 hr incubation period at 37° C. The medium was then removed, the resulting formazan was dissolved in […] DMSO and the respective absorbances were measured at 560-650 nm using a microplate reader (Molecular Devices, Sunnyvale, Calif.). Absorbance values were corrected for background and then normalized to wells containing untreated cells to allow for plate-to-plate comparisons. […]

[2] = test system: 2780CP ovarian (multi-drug resistant); experiment: Cell proliferation (MTT) assay in 2780CP ovarian cells; format: cell-based; settings: Table 3; error is standard error of the mean
Description: as §1, §2

[3] = Electrochemical analysis (differential pulse voltammetry) in DMSO; format: physicochemical; settings: 0.1M [N(nBu)4][PF6], 0.1 mM analyte, vs SCE
Description: [Cl] (Guth et al., 2011; Gómez et al., 2003).
1,3-Dimesitylnapthoquinimidazolium chloride (Sanderson et al., 2006; Tennyson et al., 2010), (1,3-dimesityl-4,5-naphthoquino-imidazol-2-ylidene)-silver(I) chloride (Sanderson et al., 2006; Tennyson et al., 2010), (C4H2S)AuCl (Hashmi, et al., 2010) were prepared according to the literature procedures. All other reagents were purchased from commercial sources and used as received, including: [((CH3)3Si)2N]Na (NaHMDS) and silver(I) oxide. CD2Cl2 (99.9%) was purchased from Acros Laboratories in glass ampules and used as received. Solvents were either dried with a solvent purification system from the Inert Innovative Technology, Inc. (dichloromethane, diethyl ether, hexanes, tetrahydrofuran and toluene) or freshly distilled over 3 Å molecular sieves and degassed using three consecutive freeze-pump-thaw cycles prior to use. UV-vis spectra were obtained at ambient temperature with a Hewlett-Packard 8452A diode array spectrophotometer with molar absorptivities reported in M^−1 cm^−1. ^1H and ^13C NMR spectra were recorded on Bruker 300 MHz spectrometer. Spectra were referenced to the residual solvent as an internal standard, for ^1H NMR: CD2Cl2, 5.32 ppm and ^13C NMR: CD2Cl2, 53.84 ppm. High-resolution mass spectra (HRMS) were obtained with an Agilent Technologies 6530 Accurate Mass Q-TOF LC/MS (ESI) and are reported as m/z (relative intensity). Electroanalytical measurements were performed on a CHI620E electrochemical workstation using a silver wire quasi-reference electrode, a platinum disk working electrode and a Pt wire auxiliary electrode in a three-electrode cell under an atmosphere of nitrogen. […] All potentials listed herein were determined by differential pulse voltammetry and referenced to a saturated calomel electrode (SCE) by shifting ferrocene^0/+ to 0.435 V (DMSO) (Aranzaes et al., 2006). Spectroelectrochemistry measurements were obtained at ambient temperature with a custom designed three-electrode cell using Hewlett-Packard 8452A diode array spectrophotometer and CHI620E. Elemental analyses were performed by Midwest Microlab, LLC in Indianapolis, Ind. […] Trypsin (Hyclone SH30236.01) and Dulbecco's Phosphate Buffer Saline (Sigma R5886) were used for general cell maintenance and harvesting. Cell lines were obtained from the ATCC (A549 and PC-3) and Prof. Zahid Siddik at MD Anderson (A2780 and A2780CP). Thiazolyl blue tetrazolium bromide (Alfa Aesar L11939) was used for cell proliferation assays. Cell culture plastic ware consisted of generic T-75 flasks, 80.5 mm diameter culture dishes, and treated 96-well plates.

PC-3 prostate (p53 null) = experiment: Cell proliferation (MTT) assay in PC-3 prostate cells; format: cell-based; settings: Table 3; error is standard error of the mean
Description: as §1, §2

A549 lung cancer cells = experiment: ICP-MS detection of intracellular Au (cellular uptake); settings: A549 cells, in words
Description: Roughly 7−8×10^6 cells were grown to 70-80% confluence in T-75 cell culture flasks (Thermo 130190) and treated with respective compound in RPMI medium supplemented with 10% FBS and antibiotics for the desired incubation time. The medium was then removed and cells were washed with 8 mL 1× warm PBS. 2 mL 1×PBS was then added to each flask, and the cells were removed by scraping. Each cell suspension was then pipetted into a clean, labeled 15 mL centrifuge tube (Thermo 339650). Cells were pelleted by centrifuging at 1,000 rpm for 5 min in an Eppendorf 5804 with a swing-bucket rotor. The supernatant was removed by vacuum aspiration, and the pellet was resuspended in 50 μL autoclaved deionized water. Suspension/lysates were then kept at −80° C. until further use. After thawing, the lysates were then sonicated using a Branson Digital Sonifier, and 5 μL aliquots were taken for determination of protein content of the sample. Lysates were digested with 80 μL aqua regia and heated to 65° C. for 1 h. Digested lysates were diluted with 4 mL 3% Trace Metal Grade HCl and gold content was measured on a Perkin Elmer NexION 300× set to detect gold at 197 m/z. Gold concentrations were quantified using the linear range of a standard curve generated by serial dilution of an ICP-MS gold standard (Ricca MSAU1KH-100) in 3% HCl. Values were then normalized to protein content as determined using a Modified Lowry Protein Assay Kit (Thermo 23240) and known concentrations of bovine serum albumin (Fisher 9048-46-8).
The Modified Lowry Assay was used to determine the protein content of each sample for normalization purposes. The standard curve for each run was made from a 2-fold serial dilution of fresh 5 mg/mL BSA solution. Aliquots were diluted to within the linear range of the standard curve using autoclaved DI water, and subjected to the Modified Lowry Assay in round-bottomed 96-well clear plates (Fisher 12565500). […] All other aspects of the procedure were as detailed in the microplate procedure instructions that come with the kit.

Cc1cc(C)c(-n2c3c([n+](-c4c(C)cc(C)cc4C)[c]2[Au-][c]2n(-c4c(C)cc(C)cc4C)c4c([n+]2-c2c(C)cc(C)cc2C)C(=O)c2ccccc2C4=O)C(=O)c2ccccc2C3=O)c(C)c1.[Cl][Ag-][Cl] [Compound 1, [Bis(1,3-dimesityl-4,5-naphthoquino-imidazol-2-ylidene)-gold(I)] [Silver(I)dichloride]]
IC50 [1]: 26 ± 7 nM | IC50 [2]: 54 ± 6 nM | E1/2 (V) DPV, first reduction, formation of semiquinone radical [3]: −0.42 V | E1/2^b (V) DPV, second reduction, formation of quinone dianion [3]: −1.31 V | IC50 (PC-3 prostate (p53 null)): 96 ± 17 nM | intracellular Au levels (ICP-MS) (A549 lung cancer cells): identical
